Reference: patent publication US20040198833A1, “Acetylenic sulfonamide derivatives” (priority 2000, published 2004)

Question: With `CC(C)S(=O)(=O)NCC(C)(F)c1ccc(C#CCCCCO)cc1` (stereo not shown) [Example 11, {2-fluoro-2-[4-(6-hydroxyhex-1-ynyl)phenyl]propyl}[(methylethyl)sulfonyl]amine] as the compound, how does the melting point read?
Answer: 92 to 93 °C
